Test results published in paper PMC10455904, “New Phocoenamicin and Maklamicin Analogues from Cultures of Three Marine-Derived Micromonospora Strains” (Marine Drugs, 2023).
≈ marks a conversion by molar mass, not a printed value. Entries after “also recorded” stand apart in the source; their conditions may differ. Where two headings read alike, the source gives them in different places.

Legend:
[1] = tested on: Mycobacterium tuberculosis H37Ra (ATCC25177); test: Antibacterial MIC assay against M. tuberculosis H37Ra; type: cell-based; conditions: lowest concentration inhibiting ≥90% of growth
[2] = tested on: methicillin-resistant Staphylococcus aureus (MRSA) MB5393; test: Antibacterial MIC assay against MRSA MB5393; type: cell-based
[3] = tested on: Enterococcus faecalis VANS 144492; test: Antibacterial MIC assay against E. faecalis; type: cell-based
[4] = tested on: Enterococcus faecium VANS 144754; test: Antibacterial MIC assay against E. faecium; type: cell-based
[5] = tested on: Neisseria gonorrhoeae ATCC49226; test: Antibacterial MIC assay against N. gonorrhoeae; type: cell-based
[6] = tested on: zebrafish eleuthero embryos; test: Zebrafish eleuthero embryos toxicity assay (immersion); type: in vivo; conditions: for developmental abnormalities: 25 μM, 48 h exposure, 5 dpf, representative larvae; for toxicity (lethality and sub-lethal toxicity): 3 dpf larvae, 48 h immersion, 1.6–25 μM, read at 5 dpf
Procedure: The compounds were dissolved in dimethyl sulfoxide (DMSO) and then diluted in the fish medium (Danieau) in which the 3 dpf zebrafish larvae were swimming for 48 h. The concentrations tested were 1.6, 3.13, 6.25, 12.5 and 25 μM for each of the three compounds. Vehicle-treated Control eleuthero embryos (VHC) were also treated with the same concentration of DMSO (0.5%) in fish medium to compare the possible effects of the compounds.
After the 48 h exposure, corresponding to 5 dpf larvae, the possible mortality, touch-stimulation response and developmental abnormalities were examined using a dissecting microscope coupled with a digital color camera and pictures were captured. Then, the score for the sub-lethal toxicity and lethality was determined for each fish and condition and the mean score was calculated. The assays were independently replicated three times, using 10 embryos for each condition and compound in each assay, and thus the total number of zebrafish embryos used was 480.
Each of the three compounds (3, 4 and 7) was dissolved in 100% dimethyl sulfoxide (DMSO, spectroscopy grade) and diluted in Danieau’s medium to a final concentration of 25 μΜ (0.5% DMSO), followed by ½ serial dilutions to provide five testing concentrations (1.6, 3.13, 6.25, 12.5 and 25 μM).
Next, 3 dpf zebrafish eleuthero embryos randomly selected were immersed in a 24-well plate containing the three compounds in the different testing concentrations (n = 10 larvae per well). At the same time, 10 Vehicle-treated Control eleuthero embryos (VHC) were also treated with 0.5% DMSO, in accordance with the final solvent concentration of testing compounds to compare the possible effects of the compounds. The eleuthero embryos were incubated under a 14/10 h light/dark cycle at 27–28 °C.
After the 48 h exposure, at 5 dpf, the lethality (cardiac rhythm and degraded body were used as clinical criteria) and touch-stimulation response were assessed using non-anesthetized eleuthero embryos, while the possible morphological defects were evaluated after anesthetizing the eleuthero embryos in 0.5 mM tricaine. All observations were performed using an M80 stereo microscope (Leica Microsystems, Danaher Co., Wetzlar, Germany) and pictures were captured with a Leica DFC310 FX digital color camera (Leica Microsystems, Danaher Co., Germany) and stored.
Mean score of lethality and sub-lethal toxicity per condition was calculated as follows: To each adverse effect observed (impaired motility, bad development, body curvature and swim bladder defects) a score of 1 was given (maximum 4 per larva), and a score of 6 to each dead embryo. The mean score was then calculated for all eleuthero embryos (pooled results) examined per condition, as performed before.
The results were obtained from three independent experiments, using ten larvae for each test concentration and compound. Statistical analysis was performed by using GraphPad Prism version 9.0 (GraphPad Software Inc., San Diego, CA, USA) and one-way analysis of variance (ANOVA) followed by Tukey’s multiple comparison test. The criterion for statistical significance was p < 0.05.

[7] = MTT cytotoxicity assay, Hep G2; conditions: human
in vitro = conditions: human
[8] = tested on: human liver adenocarcinoma cell line (Hep G2); test: MTT cytotoxicity assay, Hep G2; conditions: for cytotoxicity (in words): Hep G2, in vitro
[9] = tested on: human liver adenocarcinoma cell line (Hep G2)
[10] = Mycobacterium tuberculosis, read-out: MIC
[11] = Staphylococcus aureus, MRSA MB5393, lowest concentration inhibiting ≥90% of growth after overnight incubation, read-out: MIC
[12] = Enterococcus faecalis, VANS144492, E. faecalis VANS 144492, lowest concentration inhibiting ≥90% of growth, read-out: MIC
[13] = Enterococcus faecium, VANS144754, E. faecium VANS 144754, lowest concentration inhibiting ≥90% of growth, read-out: MIC
[14] = Neisseria gonorrhoeae, N. gonorrhoeae ATCC49226, lowest concentration inhibiting ≥90% of growth, read-out: MIC
[15] = Enterococcus faecalis, VANS144492
[16] = Enterococcus faecium, VANS144754
[17] = Neisseria gonorrhoeae, ATCC49226

| Compound | MIC [1, 10] | MIC [2, 11] | MIC [3, 12] | MIC [4, 13] | MIC [5, 14] | IC50 (in vitro) | other results |
| --- | --- | --- | --- | --- | --- | --- | --- |
| [H]/N=C(/N)N[C@H]1[C@H](O)[C@@H](O)[C@H](O[C@@H]2O[C@@H](C)[C@](O)(C=O)[C@H]2O[C@@H]2O[C@@H](CO)[C@H](O)[C@@H](O)[C@@H]2NC)[C@@H](N/C(N)=N\[H])[C@@H]1O [streptomycin, reference compound] | 2.8 to 5.4 µM (≈ 1.63 to 3.14 µg/mL) |  |  |  |  |  | MIC [1]: 2.8–5.4 (S) μM |
| CC(=O)[C@](C)(O)[C@@H](O)C[C@@H]1C[C@@]23OC(=O)C(=C2O)C(=O)[C@@]2(C)[C@H]4[C@H](C=C[C@H]2[C@H](C)/C=C/C[C@]3(C)C=C1C)[C@@H](O[C@@H]1O[C@H](C)[C@@H](O)[C@H](O[C@H]2O[C@H](C)[C@@H](OC(=O)c3c(O)ccc(Cl)c3C)[C@H](O)[C@H]2O)[C@H]1O)[C@H](C)C[C@@H]4C [Compound 3, phocoenamicin] | 7.5 µM (≈ 8.04 µg/mL) | 3.7 µM (≈ 3.97 µg/mL) | 7.5 µM (≈ 8.04 µg/mL) | 3.7 to 7.5 µM (≈ 3.97 to 8.04 µg/mL) | > 119 µM |  | developmental abnormalities [6]: no developmental abnormalities; toxicity (lethality and sub-lethal toxicity) [6]: no toxicity; also recorded: not to be toxic; IC50 [7]: > 58.8 µM |
| CC(=O)[C@](C)(O)[C@@H](O)C[C@@H]1C[C@@]23OC(=O)C(=C2O)C(=O)[C@@]2(C)[C@H]4[C@H](C=C[C@H]2[C@H](C)/C=C/C[C@]3(C)C=C1CO)[C@@H](O[C@@H]1O[C@H](C)[C@@H](O)[C@H](O[C@H]2O[C@H](C)[C@@H](OC(=O)c3c(O)ccc(Cl)c3C)[C@H](O)[C@H]2O)[C@H]1O)[C@H](C)C[C@@H]4C [Compound 4, phocoenamicin B] | 14.7 µM (≈ 16 µg/mL) |  |  |  |  | 17.6 µM | MIC ([2]; Staphylococcus aureus, MRSA): 7.4 µM (≈ 8.05 µg/mL); MIC [3, 15]: > 58.8 µM; MIC [4, 16]: ≥ 58.8 µM; MIC [5, 17]: > 118 µM; developmental abnormalities [6]: no developmental abnormalities; toxicity (lethality and sub-lethal toxicity) [6]: no toxicity; also recorded: not to be toxic; cytotoxicity (in words) [8]: moderate activity |
| CC(=O)C(C)(O)C(O)CC1CC23OC(=O)C(=C2O)OC(=O)C2(C)C(C=CC4C(OC5OC(C)C(O)C(OC6OC(C)C(OC(=O)c7c(O)ccc(Cl)c7C)C(O)C6O)C5O)C(C)CC(C)C42)C(C)C=CCC3(C)C=C1CO (stereo not shown) [Compound 1, Phocoenamicin D] | 58 µM (≈ 64 µg/mL) |  |  |  |  | > 58.8 µM | MIC ([2]; Staphylococcus aureus, MRSA): 58 µM (≈ 64 µg/mL); MIC [3, 15]: > 58 µM; MIC [4, 16]: ≥ 116 µM; MIC [5, 17]: > 116 µM |
| C[C@H]1CC[C@@H]2[C@H](C=C[C@H]3[C@H](C)/C=C/C[C@]4(C)C=C(CO)[C@H](C[C@@H](C)O)C[C@]45OC(=O)C(=C5O)C(=O)[C@@]23C)C1 [Compound 7, maklamicin] | 61 µM (≈ 32 µg/mL) | < 0.5 µM | 1.9 µM (≈ 0.997 µg/mL) | 1 µM (≈ 0.525 µg/mL) | > 244 µM | 40.2 µM | MIC ([2]; MRSA MB5393, lowest concentration inhibiting ≥90% of growth after overnight incubation, read-out: MIC): <0.5 µM; toxicity (lethality and sub-lethal toxicity) [6]: no toxicity; also recorded: not to be toxic; cytotoxicity (in words) [9]: moderate activity |
| penicillin [reference compound] |  |  |  |  |  |  | MIC ([5]; N. gonorrhoeae ATCC49226, lowest concentration inhibiting ≥90% of growth): 5.6 (P) μM |
| COS(C)(=O)=O [MMS, Methyl methanesulfonate, reference compound] |  |  |  |  |  |  | cell death (positive control) ([8]; Hep G2, MTT, 2 mM): 100% |
| Cc1c(Cl)ccc(O)c1C(=O)O[C@H]1[C@H](O)[C@@H](O)[C@@H](O[C@@H]2[C@@H](O)[C@H](O[C@@H]3[C@H]4C=C[C@H]5[C@H](C)/C=C/C[C@]6(C)C=C(CO)[C@H](C[C@@H](C)O)C[C@]67OC(=O)C(=C7O)C(=O)[C@@]5(C)[C@@H]4[C@@H](C)C[C@H]3C)O[C@H](C)[C@H]2O)O[C@@H]1C [Compound 2, Phocoenamicin E] | 31.5 to 63 µM (≈ 32 to 64 µg/mL) |  | > 63 µM | > 63 µM | > 126 µM |  | MIC ([2]; Staphylococcus aureus, MRSA): 31.5 to 63 µM (≈ 32 to 64 µg/mL); IC50 [7]: 21 µM; cytotoxicity (in words) [8]: moderate activity |
| CC(=O)[C@](C)(O)[C@@H](O)C[C@@H]1C[C@@]23OC(=O)C(=C2O)OC(=O)[C@@]2(C)[C@H]4[C@H](C=C[C@H]2[C@H](C)/C=C/C[C@]3(C)C=C1C)[C@@H](O[C@@H]1O[C@H](C)[C@@H](O)[C@H](O[C@H]2O[C@H](C)[C@@H](OC(=O)c3c(O)ccc(Cl)c3C)[C@H](O)[C@H]2O)[C@H]1O)[C@H](C)C[C@@H]4C [Compound 5, phocoenamicin C] | 29.4 to 58.8 µM (≈ 32 to 64 µg/mL) | 29.4 µM (≈ 32 µg/mL) | > 58.8 µM | > 58.8 µM | > 58.8 µM |  | IC50 [7]: > 58.8 µM |
| CC1=CC2(C)CC=CC(C)C3C=CC4CC(C)CCC4C3(C)C(=O)C3=C(O)C2(CC1CC(C)O)OC3=O (stereo not shown) [Compound 6, Maklamicin B] | 2 µM (≈ 1.02 µg/mL) | 2 µM (≈ 1.02 µg/mL) | 62.9 µM (≈ 32 µg/mL) | 1 µM (≈ 0.509 µg/mL) | > 252 µM | > 58.8 µM |  |
| CN[C@H](CC(C)C)C(=O)N[C@H]1C(=O)N[C@@H](CC(N)=O)C(=O)N[C@H]2C(=O)N[C@H]3C(=O)N[C@H](C(=O)N[C@H](C(=O)O)c4cc(O)cc(O)c4-c4cc3ccc4O)[C@H](O)c3ccc(c(Cl)c3)Oc3cc2cc(c3O[C@@H]2O[C@H](CO)[C@@H](O)[C@H](O)[C@H]2O[C@H]2C[C@](C)(N)[C@H](O)[C@H](C)O2)Oc2ccc(cc2Cl)[C@H]1O [vancomycin, reference compound] |  | 1.4 µM (≈ 2.03 µg/mL) | 1.4 µM (≈ 2.03 µg/mL) | 1.4 µM (≈ 2.03 µg/mL) |  |  | MIC ([2]; MRSA MB5393, lowest concentration inhibiting ≥90% of growth after overnight incubation): 1.4 (V) μM; MIC ([3]; E. faecalis VANS 144492, lowest concentration inhibiting ≥90% of growth): 1.4 (V) μM; MIC ([4]; E. faecium VANS 144754, lowest concentration inhibiting ≥90% of growth): 1.4 (V) μM |
